How the values were obtained:
PDE3 = assay: HTS drug screening for PDE3 (PDELight HTS cAMP Phosphodiesterase Kit, luminescence); format: biochemical; conditions: compared with conventional drugs
Procedure: For drug screening, high-throughput screening (HTS) was used.
In addition, as described above, in the present invention, to screen materials for treating neurodegenerative diseases such as Alzheimer's disease and Lou Gehrig's disease, among PDE isoforms, PDE3 was selected as a target, and an optimized concentration to be used in the experiment was selected to construct a drug screening system as shown in FIG. 9.
Compounds included in the library of 800 FDA-approved drugs were diluted 1/4 from a concentration of 100 μM and dispensed into each well in 96-well plates, and mixed with a PDE reactant to allow a PDE reaction with the drug for 1 hour at a constant temperature.
For drug efficacy screening for PDE inhibition, HTS was used. cAMP-based screening was conducted with an FDA-approved drug library and a Selleckchem library based on the conventional PDE inhibitor. The experiment was carried out in the same manner as used in screening of the FDA-approved drug library. Compared with cilostazol, which is known as a PDE3 inhibitor, drugs with high inhibitory activity were selected. […] After a stop solution was mixed with a AMP detection agent, the mixture was dispensed at 20 μl per well to allow a reaction for 10 minutes, followed by immediately measuring luminescence, and the experiment was performed according to a protocol provided by the kit used herein.

[1] = system: amyloid beta-accumulated pericytes and astrocytes; assay: Amyloid beta expression pattern on AMX treatment (western blotting); format: cell-based, mouse; conditions: amyloid beta injected and accumulated in pericytes and astrocytes, then AMX
Procedure: For astrocyte culture, first, cerebral cortices (neocortices) were dissociated from murine fetuses (3 weeks old), and the obtained cortical tissue was divided into single cells. […] New cells were cultured and used each time without passaging.
(§1) Each type of cell was cultured under the culture conditions, a cell culture was restored, followed by preparing a particulate fraction in a 50 mM Tris buffer. Proteins obtained from the cell culture developed in a SDS polyacrylamide gel, transferred to an immobilon-P membrane (Millipore, USA), and reacted with antibodies overnight. Next day, western blots were washed, reacted with peroxidase-linked secondary antibodies at room temperature for 1 hour, followed by staining bands with 4-chloro-1-naphthol.
(§2) FIG. 16 is a graph representing the percent activity (% activity) according to the concentrations of finally selected amlexanox (AMX) for various PDE isoforms, and FIGS. 17 and 18 show western blotting images representing the amyloid beta expression pattern and G93A SOD-1 and P301L tau expression when amyloid beta-accumulated pericytes and astrocytes are treated with the finally selected amlexanox (AMX).

P301L tau = assay: Tau accumulation on AMX treatment (western blotting); format: cell-based
Procedure: as §1, §2

G93A SOD-1 = G93A SOD-1 accumulation on AMX treatment (western blotting); format: cell-based
Procedure: as §1, §2

mouse pericytes [2] = assay: Lysosome pH in bafilomycin A1-treated pericytes (LysoSensor, confocal microscope); format: cell-based; conditions: cells alkalized by bafilomycin A1
Text: A system that can visualize changes in intracellular lysosome pH with LysoSensor, which is a pH-sensitive lysosomal dye, in mouse pericytes using a confocal microscope was established (refer to Example 6) to observe whether amlexanox (AMX) is involved in the pH change of lysosomes in cells.
FIG. 19 is a set of time-dependent confocal microscope images (left) of mouse pericytes when being treated with Bafilomycin A1, which is a vATPase inhibitor, and then stained with LysoSensor, and quantified data (right) thereof.
Here, the images on the left side of FIG. 19 are obtained by treating mouse pericytes with bafilomycin A1, which is a vATPase inhibitor, and analyzing the cells using LysoSensor over time by a confocal microscope (top), and by treating the bafilomycin A1-treated mouse pericytes with the finally selected amlexanox (AMX) and analyzing the cells using LysoSensor over time by a confocal microscope (bottom).

mouse pericytes [3] = assay: Zinc concentration in pericytes (Zinpyr-1 fluorescence); format: cell-based
Text: FIG. 20 is a set of confocal microscope images of groups of mouse pericytes, which are not treated (CTL) or treated with finally-selected amlexanox (AMX) (PDEi), in which, to measure a zinc concentration, fluorescence intensity was detected by treating the cells with a fluorescent dye (Zinpyr-1) for detecting zinc ions.

cathepsin B = assay: Lysosomal function activity in astrocytes: degree of hydrolysis of cathepsin B; format: cell-based, mouse; conditions: bafilomycin A1-treated mouse astrocytes
Procedure: (§3) Samples stained with enzymatic dyes such as cathepsin B and cathepsin L were administered into the cell culture to allow a reaction for 30 minutes, and changes in activity of lysosomes in cells were confirmed using a confocal microscope.
(§4) Astrocytes were stained with a fluorescence-tagged lysosomal protein, and the degrees of hydrolysis of cathepsin B and cathepsin L, which are lysosomal proteins, were analyzed.
(§5) FIG. 21 is a set of time-dependent confocal microscope images of mouse astrocytes, which are treated with bafilomycin A1, which is a vATPase inhibitor, to assess the degree of hydrolysis of cathepsin B (top) and cathepsin L (bottom).

cathepsin L = assay: Lysosomal function activity in astrocytes: degree of hydrolysis of cathepsin L; format: cell-based, mouse; conditions: bafilomycin A1-treated mouse astrocytes
Procedure: as §3, §4, §5

5×FAD mice = assay: Morris water maze test (hidden platform test and probe test) in Alzheimer's disease animal model; format: in vivo, mouse
Procedure: To confirm whether amlexanox (AMX; Z007) is effective even for animal models, an experiment was conducted using 5×FAD mice, which is one of the Alzheimer-type dementia animal models. Here, the 5×FAD mice, which is one of the Alzheimer-type dementia animal models, were provided in Korea and used.
Drug administration and behavioral evaluation were conducted on the same schedule as in FIG. […] Immediately after the end of the administration, a Morris water maze test, which is a behavioral experiment that can evaluate memory and learning ability, was conducted.
The Morris water maze test was performed as described in Behay. Brain Res. (155, 185-196) (refer to Behay. Brain Res., 155, 185-196). A water tank used in the water maze test is a cylindrical tank with a diameter of 90 cm and a height of 60 cm, and filled with water in which milk powder is diluted at 23±2[…] during a test period. In the tank, a transparent platform was installed 1 cm below the water surface, and four signs were placed outside the tank. The motion trajectory of a mouse was analyzed through a video tracking system (Smart3.0, Panlab, USA).
During the trial period, the mice were placed into the water tank at four randomly selected starting points toward the side where the platform was not shown. In each trial, an escape latency, which is the time to find the platform after the mouse is put into the water tank, was recorded, and when finding the platform, the mouse was allowed to stay on the platform for 10 seconds and then moved to a home cage. […] Each trial was performed four times a day for 5 days.
A probe test was conducted on the last […] of the test. After the platform was removed, the test was performed by allowing a mouse to swim in a water tank for 60 seconds and recording the time to first enter the location of the platform and how many times the mouse passed the location.

GFP-tagged mHttQ protein = assay: GFP-mHttQ aggregation (GFP antibody); format: cell-based; conditions: cells injected with GFP-tagged mHttQ protein, AMX
Procedure: A GFP-tagged mHttQ protein was injected into cells, thereby confirming a pharmacological reaction mediated by AMX using a GFP antibody. The accumulation of mHttQ in cells through aggregation was confirmed by GFP expression.

[4] = 1 mg/kg and 2.5 mg/kg intraperitoneal, compared with Veh group

## CC(C)c1ccc2oc3nc(N)c(C(=O)O)cc3c(=O)c2c1 [amlexanox, 2-amino-7-isopropyl-5-oxo-5H-[1]benzopyrano[2,3-b] pyridine-3-carboxylic acid]
PDE3
  inhibitory effect specific for PDE3: significant inhibitory effect
[1]
  aggregation of amyloid beta protein: inhibited
P301L tau
  accumulation of toxic protein Tau: reduced
G93A SOD-1
  accumulation of toxic protein G93A SOD-1: reduced
Mouse pericytes [2]
  time to restore (acidify) the lysosome pH environment to the original state: ≤ 60 minutes
Mouse pericytes [3]
  concentration of zinc in the cell: restored and increased to a normal level
Cathepsin B
  time to restore lysosomal activity of cathepsin B to the original state: ≤ 60 min
Cathepsin L
  time to restore lysosomal activity of cathepsin L to the original state: ≤ 60 min
5×FAD mice; [4]
  number of passing the target point: increases
  time to find the target point: increase
5×FAD mice; AMX-administered
  memory and learning ability: improved
GFP-tagged mHttQ protein
  GFP expression (aggregated GFP-mHttQ protein): decrease

Reference: patent US20210220340A1, “COMPOSITION FOR PREVENTION OR TREATMENT OF NEURODEGENERATIVE DISEASE” (THE ASAN FOUNDATION, priority 2018, published 2021)
